{"source": "paper PMC10247784", "about": "“Physiological activation of human and mouse bitter taste receptors by bile acids” (Communications Biology, 2023)", "molecular_target": "T1, human TAS2R14 (Homo sapiens, UniProt Q9NYV8)", "T1 construct": "expressed in transfected cells; host or cells: HEK293T-Gα16gust44", "T1 sequence (Q9NYV8 1-317)": "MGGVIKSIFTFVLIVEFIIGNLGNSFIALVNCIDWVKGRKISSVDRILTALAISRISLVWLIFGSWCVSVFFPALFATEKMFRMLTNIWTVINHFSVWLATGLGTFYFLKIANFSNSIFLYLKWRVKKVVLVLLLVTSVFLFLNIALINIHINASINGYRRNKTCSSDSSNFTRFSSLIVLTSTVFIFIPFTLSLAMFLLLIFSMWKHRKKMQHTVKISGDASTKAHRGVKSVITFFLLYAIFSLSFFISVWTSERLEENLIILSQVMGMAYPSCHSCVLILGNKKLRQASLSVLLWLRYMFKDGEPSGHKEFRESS", "assay": "Calcium imaging assay (FLIPR), HEK293T-Gα16gust44 cells transfected with human TAS2R14", "type": "cell-based", "settings": "for RLU: TAS2R14 trace", "procedure": "This set of bile acids was chosen because of their commercial availability in high purities, their diversity within the class of bile acids and their previous detection and quantitation in human blood. Stock solutions were prepared in DMSO.\nAs basal growth medium for the HEK293T-Gα16gust44 cell line[17],[59] served Dulbecco’s modified eagle medium (DMEM) (Thermo Fisher Scientific, Darmstadt, Germany) supplemented with 10 % fetal bovine serum (Sigma-Aldrich, Steinheim, Germany), 2 mM L-glutamine (Sigma-Aldrich, Steinheim, Germany), 100 units/ml penicillin (Sigma Aldrich, Steinheim, Germany) and 100 µg/ml streptomycin (Sigma Aldrich, Steinheim, Germany). Growth conditions were 37 °C, 5 % CO2 and saturated air-humidity[60].\nHEK293T-Gα16gust44 cells were seeded on poly-D-lysine (10 µg/ml) coated 96-well plates to reach a confluence of 40-60 % the next day. For transient transfection 150 ng of plasmid DNA containing the receptor of interest and 0.3 µl lipofectamine 2000 (Thermo Fisher Scientific, Darmstadt, Germany) per well were used and transfection took place according to the manual of lipofectamine 2000. […] The empty vector DNA (mock) was transfected as negative control[14],[41].\nCells were loaded using the calcium-sensitive fluorescent dye Fluo-4-AM (Abcam, Cambridge, Great Britain) in the presence of 2.5 mM probenecid (Sigma-Aldrich, Steinheim, Germany) the day after transfection[13],[41]. 1 h after loading, cells were washed with C1 buffer using a BioTek Cell Washer, incubated in the dark for half an hour and washed again. For automated agonist application and measurement of fluorescence changes, a FLIPR^TETRA device (Molecular Devices, San José, United States) was used. Viability of cells was tested by application of 100 nM Somatostatin 14 (Bachem, Bubendorf, Switzerland)[42].\nMeasured data were negative control corrected by subtracting the signal of the mock-transfected cells and exported to Microsoft Excel using the FLIPR software ScreenWorks 4.2. In Microsoft Excel software, standardization of maximum fluorescence intensities to the basal fluorescence and normalization to the buffer-only control was done to calculate the relative fluorescence changes (ΔF/F).\nInitial screening experiments performed in duplicate wells were confirmed by at least one replication and representative traces were selected for display. All dose-response relationships were determined by three independent experiments (biological replicates) performed in duplicates (technical replicates). Threshold concentrations, defined as lowest substance concentrations leading to statistically significant elevated fluorescence changes in receptor-transfected cells compared with empty vector-transfected cells, were determined using SigmaPlot with Student’s t-test to evaluate statistical significance (p < 0.01).", "data": [{"smiles": "C[C@H](CCC(=O)O)[C@H]1CC[C@H]2[C@@H]3[C@H](O)C[C@@H]4C[C@H](O)CC[C@]4(C)[C@H]3C[C@H](O)[C@]12C", "note": "[Cholic Acid, cholic acid]", "values": [{"measurement": "RLU", "setting": "Time (s) 94.797 (Chenodeoxycholic Acid 94.781)", "value": 1154.9, "unit": "RLU"}, {"measurement": "RLU", "setting": "Time (s) 96.797 (Chenodeoxycholic Acid 96.781)", "value": 1163.63, "unit": "RLU"}, {"measurement": "RLU", "setting": "Time (s) 98.797 (Chenodeoxycholic Acid 98.781)", "value": 1184.89, "unit": "RLU"}, {"measurement": "RLU", "setting": "Time (s) 100.797 (Chenodeoxycholic Acid 100.781)", "value": 1211.25, "unit": "RLU"}, {"measurement": "RLU", "setting": "Time (s) 102.797 (Chenodeoxycholic Acid 102.781)", "value": 1207.36, "unit": "RLU"}, {"measurement": "RLU", "setting": "Time (s) 104.797 (Chenodeoxycholic Acid 104.781)", "value": 1232.88, "unit": "RLU"}, {"measurement": "RLU", "setting": "Time (s) 106.797 (Chenodeoxycholic Acid 106.781)", "value": 1256.04, "unit": "RLU"}, {"measurement": "RLU", "setting": "Time (s) 108.797 (Chenodeoxycholic Acid 108.781)", "value": 1236.19, "unit": "RLU"}, {"measurement": "RLU", "setting": "Time (s) 110.797 (Chenodeoxycholic Acid 110.781)", "value": 1242.72, "unit": "RLU"}, {"measurement": "RLU", "setting": "Time (s) 112.797 (Chenodeoxycholic Acid 112.781)", "value": 1266.26, "unit": "RLU"}, {"measurement": "RLU", "setting": "Time (s) 114.797 (Chenodeoxycholic Acid 114.781)", "value": 1269.15, "unit": "RLU"}, {"measurement": "RLU", "setting": "Time (s) 116.797 (Chenodeoxycholic Acid 116.781)", "value": 1265.61, "unit": "RLU"}, {"measurement": "RLU", "setting": "Time (s) 118.797 (Chenodeoxycholic Acid 118.781)", "value": 1260.33, "unit": "RLU"}, {"measurement": "RLU", "setting": "Time (s) 120.797 (Chenodeoxycholic Acid 120.781)", "value": 1305.24, "unit": "RLU"}, {"measurement": "RLU", "setting": "Time (s) 122.797 (Chenodeoxycholic Acid 122.781)", "value": 1269.8, "unit": "RLU"}, {"measurement": "RLU", "setting": "Time (s) 124.797 (Chenodeoxycholic Acid 124.781)", "value": 1271.64, "unit": "RLU"}, {"measurement": "RLU", "setting": "Time (s) 126.797 (Chenodeoxycholic Acid 126.781)", "value": 1263.68, "unit": "RLU"}, {"measurement": "RLU", "setting": "Time (s) 128.797 (Chenodeoxycholic Acid 128.781)", "value": 1291.8, "unit": "RLU"}, {"measurement": "RLU", "setting": "Time (s) 130.797 (Chenodeoxycholic Acid 130.781)", "value": 1262.68, "unit": "RLU"}, {"measurement": "RLU", "setting": "Time (s) 132.797 (Chenodeoxycholic Acid 132.781)", "value": 1269.55, "unit": "RLU"}, {"measurement": "RLU", "setting": "Time (s) 134.797 (Chenodeoxycholic Acid 134.781)", "value": 1262.84, "unit": "RLU"}, {"measurement": "RLU", "setting": "Time (s) 136.797 (Chenodeoxycholic Acid 136.781)", "value": 1277.95, "unit": "RLU"}, {"measurement": "RLU", "setting": "Time (s) 137.562 (Taurocholic Acid 137.563, Chenodeoxycholic Acid 137.546)", "value": 1261.13, "unit": "RLU"}, {"measurement": "RLU", "setting": "Time (s) 143.578 (Taurocholic Acid 143.563, Chenodeoxycholic Acid 143.546)", "value": 1235.79, "unit": "RLU"}, {"measurement": "RLU", "setting": "Time (s) 149.578 (Taurocholic Acid 149.563, Chenodeoxycholic Acid 149.546)", "value": 1235.83, "unit": "RLU"}, {"measurement": "RLU", "setting": "Time (s) 155.578 (Taurocholic Acid 155.563, Chenodeoxycholic Acid 155.546)", "value": 1156.37, "unit": "RLU"}, {"measurement": "RLU", "setting": "Time (s) 161.578 (Taurocholic Acid 161.563, Chenodeoxycholic Acid 161.546)", "value": 1154.38, "unit": "RLU"}, {"measurement": "RLU", "setting": "Time (s) 167.578 (Taurocholic Acid 167.563, Chenodeoxycholic Acid 167.546)", "value": 1122.87, "unit": "RLU"}, {"measurement": "RLU", "setting": "Time (s) 173.578 (Taurocholic Acid 173.563, Chenodeoxycholic Acid 173.546)", "value": 1009.37, "unit": "RLU"}, {"measurement": "RLU", "setting": "Time (s) 179.578 (Taurocholic Acid 179.563, Chenodeoxycholic Acid 179.546)", "value": 994.85, "unit": "RLU"}, {"measurement": "RLU", "setting": "Time (s) 191.578 (Taurocholic Acid 191.563, Chenodeoxycholic Acid 191.546)", "value": 855.583, "unit": "RLU"}, {"measurement": "RLU", "setting": "Time (s) 197.578 (Taurocholic Acid 197.563, Chenodeoxycholic Acid 197.546)", "value": 818.047, "unit": "RLU"}, {"measurement": "RLU", "setting": "Time (s) 209.578 (Taurocholic Acid 209.563, Chenodeoxycholic Acid 209.546)", "value": 723.754, "unit": "RLU"}, {"measurement": "RLU", "setting": "Time (s) 221.578 (Taurocholic Acid 221.563, Chenodeoxycholic Acid 221.546)", "value": 629.159, "unit": "RLU"}, {"measurement": "RLU", "setting": "Time (s) 233.578 (Taurocholic Acid 233.563, Chenodeoxycholic Acid 233.546)", "value": 528.668, "unit": "RLU"}, {"measurement": "RLU", "setting": "Time (s) 239.578 (Taurocholic Acid 239.563, Chenodeoxycholic Acid 239.546)", "value": 477.512, "unit": "RLU"}, {"measurement": "RLU", "setting": "Time (s) 245.578 (Taurocholic Acid 245.563, Chenodeoxycholic Acid 245.546)", "value": 438.571, "unit": "RLU"}, {"measurement": "RLU", "setting": "Time (s) 293.578 (Taurocholic Acid 293.563, Chenodeoxycholic Acid 293.546)", "value": 221.346, "unit": "RLU"}, {"measurement": "RLU", "setting": "Time (s) 299.578 (Taurocholic Acid 299.563, Chenodeoxycholic Acid 299.546)", "value": 202.892, "unit": "RLU"}, {"measurement": "RLU", "setting": "Time (s) 305.578 (Taurocholic Acid 305.563, Chenodeoxycholic Acid 305.546)", "value": 181.254, "unit": "RLU"}, {"measurement": "RLU", "setting": "Time (s) 311.578 (Taurocholic Acid 311.563, Chenodeoxycholic Acid 311.546)", "value": 152.075, "unit": "RLU"}, {"measurement": "RLU", "setting": "Time (s) 317.578 (Taurocholic Acid 317.563, Chenodeoxycholic Acid 317.546)", "value": 165.461, "unit": "RLU"}, {"measurement": "RLU", "setting": "Time (s) 323.578 (Taurocholic Acid 323.563, Chenodeoxycholic Acid 323.546)", "value": 152.075, "unit": "RLU"}, {"measurement": "RLU", "setting": "Time (s) 329.578 (Taurocholic Acid 329.563, Chenodeoxycholic Acid 329.546)", "value": 111.269, "unit": "RLU"}, {"measurement": "RLU", "setting": "Time (s) 335.578 (Taurocholic Acid 335.563, Chenodeoxycholic Acid 335.546)", "value": 88.8846, "unit": "RLU"}, {"measurement": "RLU", "setting": "Time (s) 341.578 (Taurocholic Acid 341.563, Chenodeoxycholic Acid 341.546)", "value": 75.1088, "unit": "RLU"}, {"measurement": "RLU", "setting": "Time (s) 347.578 (Taurocholic Acid 347.563, Chenodeoxycholic Acid 347.546)", "value": 60.0955, "unit": "RLU"}, {"measurement": "RLU", "setting": "Time (s) 353.578 (Taurocholic Acid 353.563, Chenodeoxycholic Acid 353.546)", "value": 37.7794, "unit": "RLU"}, {"measurement": "RLU", "setting": "Time (s) 359.578 (Taurocholic Acid 359.563, Chenodeoxycholic Acid 359.546)", "value": 47.6877, "unit": "RLU"}, {"measurement": "Activation threshold concentration TAS2R14", "setting": "lowest concentration with significantly increased fluorescence vs empty vector (p < 0.01)", "value": 300, "unit": "µM"}]}]}
